# Assay results reported in US20240226234A1, “WNT5A PEPTIDES FOR THE TREATMENT OF ACUTE M[…]” (W[…], priority 2021, published 2024).
# No end group written: not given here. *: point of attachment. For = O=C*
# Experiments:
# Type in all cases: cell-based, human
# U937 cells = experiment: Autophagy assay (acridine orange), U937 cells; settings: U937, 2D culture, 72 h
# Description: (§1) A panel of human myeloid leukemia cell lines (HL60, K562, KG1a, THP1 and U937) and HS-5 mesenchymal stromal cells lineage were cultured in Roswell Park Memorial Institute medium-1640 (RPMI; Sigma) containing 10% Fetal Bovine Serum (Gibco), glutamine (2 mM; Sigma), penicillin (100 μg/mL; Sigma), streptomycin (100 μg/mL; Sigma), and amphotericin B (0.25 μg/mL; Gibco). The cells were maintained in a humidified atmosphere at 37° C. and 5% CO2 and the experiments were performed when they reached exponential growth. For the assays, cells were seeded on a 24-well plate and treated or not with Foxy-5 for 72 hours.
# Cells treated with Foxy or with vehicle were collected and acids vesicles were measured by flow cytometry following staining with Acridine Orange (0.01 mg/mL; Sigma). Acquisition of cells was performed on a FACScalibur flow cytometer (BD) and analysis was carried out using the FlowJo software 4.
# As autophagy is required for sustaining leukemia cell growth by induction of ROS production, we measured the levels of acidic granule formation by flow cytometry after Foxy-5 or vehicle treatment. […]
# K562 cells [1] = experiment: ROS production by flow cytometry, K562 cells; settings: 72 h; for ROS production (MFI): K562, 2D culture on HS5 stromal cells; for ROS production (mean fluorescence intensity): K562, monoculture
# Description: as §1
# (§2) Cells treated with Foxy or with vehicle were collected and intracellular ROS generation was measured by flow cytometry following staining with DCFDA ([…]; Sigma). Acquisition of cells was performed on a FACScalibur flow cytometer (BD) and analysis was carried out using the FlowJo software.
# (§3) Leukemia cell lines were treated for 72 h with Foxy-5, at doses of 50 and 100 μM, or vehicle, stained with DCFHA dye, and analyzed by flow cytometry.
# HL60 cells = experiment: Cell growth assay, HL60 cells; settings: Foxy-5 100 μM, 72 h
# Description: as §1
# Cells treated with Foxy or with vehicle were collected and cell number was evaluated by manual counting in monoculture and by microscopy with Image J software analysis in 2D culture.
# Next, we evaluated the proliferation rates since this process is modulated by ROS. We treated the cells with Foxy-5 (100 μM) or with vehicle (DMSO) during 72 hours, and then cell growth was analyzed by counting the cells in monoculture, manually, or by the Image J software analysis of the 2D cultures. […] Similar results were obtained in the 2D culture system using leukemia cells and HS-5 mesenchymal stromal cells.
# KG1a cells = experiment: ROS production by flow cytometry, KG1a cells; settings: 72 h; for ROS production (MFI): 2D culture on HS5 stromal cells; for ROS production (mean fluorescence intensity): monoculture
# Description: as §1, §2, §3
# K562 cells [2] = experiment: Actin polymerization assay, K562 cells; settings: K562, Foxy-5 100 μM 72 h
# Description: (§4) F-actin polymerization was analyzed in treated leukemic cell lines using AlexaFluor 633-labeled phalloidin (A22284, Invitrogen) before and after CXCL12 stimulation. The cells were stimulated with CXCL12 (300 ng/ml; Peprotech) in serum-free media at 37 °C for 30 and 120 seconds. The reaction was stopped by adding 3 volumes of paraformaldehyde (3.7%) at room temperature for 10 min, then washed and permeabilized on ice. Cells were stained with 633-phalloidin (2 mg/mL). Flow cytometric data were analyzed using a FACS flow cytometer (BD) followed by FlowJo software analysis. The F-actin content obtained were normalized calculating the ratio between each stimulated cells-mean fluorescence intensity (MFI) values and the nonstimulated cells MFI from the basal levels of the control cells and expressed as fold change.
# (§5) Therefore, we performed a flow cytometry analysis to evaluate whether Foxy-5 treatment would be able to disrupt actin polymerization. Leukemia cell lines were treated with Foxy-5 (100 μM) or vehicle during 72 hours, stimulated with CXCL12 (300 ng/ml) for 30 or 120 seconds, and stained with […] for detection of actin polymerization by flow cytometry. […] Thus, a significant reduction of actin polymerization was shown after Foxy-5 treatment when compared to untreated cells after 30 seconds of CXCL12 induction (P<. 001).
# K562 cells [3] = experiment: Cell cycle assay, K562 cells; settings: 72 h
# Description: as §1
# Cells treated with Foxy or with vehicle were collected and fixed, at least, 24 hours in 70% ethanol. DNA was stained with a buffer containing iodide propidium (20 μg/mL; Sigma) and RNase A (10 μg/mL; Sigma). Cell fluorescence was detected with a FACSCalibur flow cytometer (BD). The proportions of cells in the cell cycle phases were analyzed by Modifit (Verify Software House Inc), according to DNA distributions.
# As we observed a reduction in the leukemic proliferation after Foxy-5 treatment, we also analyzed the cell cycle phases. Leukemia cell lines were treated for 72 hours with Foxy-5, at doses of 50 μM and 100 μM, or vehicle, stained with the Piper buffer containing RNAse and iodeto propidium and then analyzed by flow cytometry.
# THP1 cells = experiment: Actin polymerization assay, THP1 cells; settings: THP1, Foxy-5 100 μM 72 h
# Description: as §4, §5
# [4] = CXCL12 300 ng/ml for 30 seconds
# [5] = CXCL12 300 ng/ml for 120 seconds
substance,measurement,setting,value
Foxy-5: Formylated hexapeptide fragment of WNT5A: MDGCEL (SEQ. ID. NO. 3) with methionine in position 1 as N-formyl methionine; WNT5A-mimicking compound (For-MDGCEL; listed as Homo sapiens),"autophagy (acidic granule formation, acridine orange, average)",U937 cells; Foxy-5 50 μM,9.40 (range 7.68-11.00) MFI
same,"autophagy (acidic granule formation, acridine orange, average)",U937 cells; Foxy-5 100 μM,6.30 (range 4.80-8.31) MFI
same,ROS production (MFI),K562 cells [1]; Foxy-5 50 μM,126.00 (range 125.000-128.20) MFI
same,ROS production (MFI),K562 cells [1]; Foxy-5 100 μM,98.25 (range 98.25-104.00) MFI
same,ROS production (mean fluorescence intensity),K562 cells [1]; Foxy-5 50 μM,83.90 (range 75.80-88.40) MFI
same,ROS production (mean fluorescence intensity),K562 cells [1]; Foxy-5 100 μM,68.75 (range 64.40-72.75) MFI
same,reduced cell growth compared to vehicle treated cells,"HL60 cells; HL60, 2D culture with HS-5 stromal cells",1.56 fold decrease
same,reduced cell growth compared to vehicle treated cells,"HL60 cells; HL60, monoculture",1.22 fold decrease
same,ROS production (MFI),KG1a cells; Foxy-5 50 μM,75.03 (range 75.03-77.70) MFI
same,ROS production (MFI),KG1a cells; Foxy-5 100 μM,69.00 (range 68.00-72.00) MFI
same,ROS production (mean fluorescence intensity),KG1a cells; Foxy-5 50 μM,36.30 (range 35.80-36.80) MFI
same,ROS production (mean fluorescence intensity),KG1a cells; Foxy-5 100 μM,29.72 (range 28.10-31.33) MFI
same,F-actin content following CXCL12 stimulation,K562 cells [2]; [4],1.37 fold increase
same,F-actin content following CXCL12 stimulation,K562 cells [2]; [5],1.31 fold increase
same,cells in G0/G1 cell cycle phase (average),"K562 cells [3]; K562, co-cultured with HS5 stromal cells, Foxy-5 50 μM",65.32%
same,cells in G0/G1 cell cycle phase (average),"K562 cells [3]; K562, co-cultured with HS5 stromal cells, Foxy-5 100 μM",83.52%
same,cells in G0/G1 cell cycle phase (average),"K562 cells [3]; K562, monoculture, Foxy-5 50 μM",59.00%
same,cells in G0/G1 cell cycle phase (average),"K562 cells [3]; K562, monoculture, Foxy-5 100 μM",83.51%
same,F-actin content following CXCL12 stimulation,THP1 cells; [4],3.56 fold increase
same,F-actin content following CXCL12 stimulation,THP1 cells; [5],1.59 fold
